Entries after “also recorded” stand apart in the source; their conditions may differ. Ends that are not written are not given here.
Columns and labels:
IL-1β promoter = IL-1β promoter (HT) luciferase gene reporter assay, transient transfection of HeLa-S3 cells with Spi-1 and C/EBPβ expression vectors; format: cell-based, human; details: for inhibition of cooperative transactivation of the IL-1β promoter: HT reporter with Spi-1 and C/EBP, absence of full-length IE2, titrated fragment vector, FIG. 2A
Description: FIGS. 1A-1D depict cooperative transactivation of the IL-1B promoter by Spi-1, C/EBPβ and IE2. FIG. 1A is a schematic of the IL-1B promoter showing two composite Spi-1-C/EBPβ binding sites in proximity to the transcription start site. The full-length promoter (HT) was spliced into a vector containing the gene reporter firefly luciferase and used in transient transfection assays in HeLa-S3 cells. FIG. 1B depicts dose-response of HT reporter to titrated Spi-1 expression vector and a fixed amount of cotransfected C/EBPβ expression vector. FIG. 1C depicts dose-response of HT reporter to titrated C/EBPβ expression vector and a fixed amount of Spi-1 expression vector. FIG. 1D depicts functional cooperativity with IE2. The HT reporter was contransfected with titrated Spi-1 expression vector (open bars) or fixed amount of C/EBPβ expression vector (checkerboard bars), or both C/EBPβ and IE2 expression vectors (hatched bars).
The data shown here are pooled from three independent experiments. […] The indicated transfection groups were con-transfected with titrated amounts of IE2 291-364 or 291-343 expression vectors. […] The experiment described by FIG. 2B is similar to that described by FIG. 2A except that wild type IE2 was also added to the indicated transfection groups. These are pooled data from three independent experiments.
• Cell Culture. HeLa cells (Strain S3) were obtained by ATCC and cultured per their recommendations. Briefly, the cells were grown in Dulbecco modified Eagle medium (DMEM) containing 10% FBS and 0.5% penicillin-streptomycin. Every three days cells were split 1:10 using Trypsin (0.25%) EDTA (0.1%) (Cellgro) to detach the cells. • Reporter Constructs and Expression Vectors. The human IL1B promoter regions (−131+12 and −59/+12 and its mutants (FIG. 1A) were generated by polymerase chain reaction (PCR) and inserted into pGL3-Basic vector (Promega) at Mlu I and BgI II or Hind III sites to construct promoter-luciferase reporter plasmids. The HCMV IE expression vectors pEQ273 and pEQ326 contain the genomic HCMV IE DNA inserted into pGEM1 vector. The plasmids expressing full-length NFIL6 and a truncated version with an internal deletion between the two Spl I restriction sites were constructed by inserting the NFIL6 cDNAs into expression vectors pcDNA3.1 or pcDNA1 (Invitrogen) (Tsukada, J., K. Saito, et al. (1994) Mol Cell Biol 14(11): 7285-97). […] Twenty-four or forty-eight hours after transfection, the activities of luciferase and β-galactosidae activity were determined (using reagents from Promega) to measure promoter activity and allow normalization of luciferase activity in each experiment, respectively. […]

Spi-1 ETS domain = biological target: T1, Spi-1 ETS domain (Homo sapiens, UniProt P17947); experiment: GST fusion pull-down assay with radiolabeled Spi-1 ETS domain probe; format: binding; details: autoradiography, FIG. 5
T1 construct: made in house; host or cells: in vitro translation, rabbit reticulocyte lysate (TNT T7 Quick Coupled, Promega), 35S-methionine label
Procedure: (§1) Interaction of the indicated probes is retained to the control peptides IE2 291-343 and IE2 291-364.
(§2) • Cell Culture. HeLa cells (Strain S3) were obtained by ATCC and cultured per their recommendations. Briefly, the cells were grown in Dulbecco modified Eagle medium (DMEM) containing 10% FBS and 0.5% penicillin-streptomycin. Every three days cells were split 1:10 using Trypsin (0.25%) EDTA (0.1%) (Cellgro) to detach the cells. • Reporter Constructs and Expression Vectors. The human IL1B promoter regions (−131+12 and −59/+12 and its mutants (FIG. 1A) were generated by polymerase chain reaction (PCR) and inserted into pGL3-Basic vector (Promega) at Mlu I and BgI II or Hind III sites to construct promoter-luciferase reporter plasmids. The HCMV IE expression vectors pEQ273 and pEQ326 contain the genomic HCMV IE DNA inserted into pGEM1 vector. The plasmids expressing full-length NFIL6 and a truncated version with an internal deletion between the two Spl I restriction sites were constructed by inserting the NFIL6 cDNAs into expression vectors pcDNA3.1 or pcDNA1 (Invitrogen) (Tsukada, J., K. Saito, et al. (1994) Mol Cell Biol 14(11): 7285-97). The expression vector containing the bZIP region of NFIL6 was constructed by inserting a PCR-amplified fragment of NFIL6 encoding amino acids 269-345 into pcDNA3.1 (Yang, Z., N. Wara-Aswapati, et al. (2000) J Biol Chem 275(28): 21272-7). • Transfections and Reporter Gene Assays. HeLa (S3) cells were transfected with expression vectors and luciferase reporter plasmids using Effectene reagents (Qiagen Inc.). Cells were seeded into 24-well plates 24 hours before transfection. […] Expression from these vectors was confirmed by western blotting. Twenty-four or forty-eight hours after transfection, the activities of luciferase and β-galactosidae activity were determined (using reagents from Promega) to measure promoter activity and allow normalization of luciferase activity in each experiment, respectively. […] Gels were stained with SimplyBlue Safestain (Invitrogen) for protein determination and analyzed for binding using autoradiography. […]

C/EBPβ bZIP domain = biological target: T2, C/EBPβ bZIP domain (Homo sapiens, UniProt P17676); experiment: GST fusion pull-down assay with radiolabeled C/EBPβ bZIP domain probe; format: binding; details: autoradiography, FIG. 5
T2 construct: PCR-amplified fragment of NFIL6 encoding amino acids 269-345 into pcDNA3.1; made in house; host or cells: in vitro translation, rabbit reticulocyte lysate (TNT T7 Quick Coupled, Promega), 35S-methionine label
Procedure: as §1, §2

IE2 = biological target: T3, IE2 (Human cytomegalovirus, UniProt P19893); experiment: GST fusion pull-down assay with radiolabeled IE2 probe; format: binding; details: autoradiography, FIG. 5
T3 construct: made in house; host or cells: in vitro translation, rabbit reticulocyte lysate (TNT T7 Quick Coupled, Promega), 35S-methionine label
Procedure: as §1, §2

GFP expression vector = experiment: Specificity control: expression of control GFP vector by flow cytometry in HeLa-S3 cells; format: cell-based; details: HeLa-S3, cotransfection, 24 hours, FIG. 4D
Procedure: (§3) FIGS. 4A-4D. […] FIG. 4D is another specificity control showing that a control GFP expression vector was not affected by either IE2 291-343 or IE2 291-364. HeLa-S3 cells were transfected with both a GFP expression vector and cotransfected with either E2 291-343 or IE 291-364 expression vectors and GFP expression analyzed 24 hours later by a fluorescence activated cell sorter.
(§4) Because the IE2 291-364 region was previously mapped as one of three TBP binding sites on IE2, it was possible that the inhibitory function was due to interaction with TBP. To exclude this possibility, the expression of two other genes that contain TATA boxes in their promoters were investigated. First, an observed the expression of C/EBPβ from the expression vector by western blot (FIG. 4C) was conducted. […] Second, His-tagged inhibitors were cotransfected with ev GFP and the geometric mean brightness of transfected cells measured by flow cytometry (FIG. 4D). […] It is believed that the basis for the interaction is localized to residues 315-328 of the IE2 molecule because a variant of IE2 291-364 missing the 315-328 region (delA) lacks binding to Spi-1 ETS domain in a GST fusion pull-down assay (FIG. 5).

IL-1β promoter reporter = experiment: Full-length IL-1β regulatory region luciferase reporter in LPS-stimulated RAW264.7 monocytic cells; format: cell-based
Description: FIG. 3 depicts that IE2 291-364 fragment inhibits full-length IL-1β reporter in the monocytic cell line RAW264.7. A luciferase gene reporter was made by splicing the native IL-1β upstream fragment (XT), which contains the enhancer through promoter sequences, upstream of the luciferase gene. This was cotransfected (in titrated doses) with pCDNA 3.1/V5-His empty vector (control) or pCDNA 3.1/V5-His IE2 291-364 by calcium phosphate precipitation into RAW 264.7 cells. To activate the reporter, cells were stimulated with LPS.
FIG. 6 depicts increasing amounts of vector expressing either IE2 291-364Δ315-328 or IE2 291-364 transfected into RAW cells with full length IL-1β regulatory protein as a luciferase reporter. After transient transfection by CaPO4, RAW cell lysates were used for measurement by luminometry and results normalized to β-galactosidase activity introduced by a co-transfected β-galactosidase expression vector to control for transfection efficiency. Values for IE2 291-364Δ315-328 are reported as percentages of relative luciferase activity compared to the wild-type fragment 315-264, as shown.
To further verify the effect of IE2 291-364, a test was conducted in the RAW 264.7 cell line. […] When the RAW 264.7 cell line was treated with the bacterial cell wall product LPS, it produced IL-1β similar to what normal monocytes would do. The IE2-291-364 peptide inhibited IL-1β promoter reporter by about 50% in this system (FIG. 3).
In order to more rigorously test the inhibitory capabilities of the IE2 peptides on IL1B gene expression, a complete monocyte-specific 3.8 kbp regulatory region of the IL1B gene containing both the LPS-responsive enhancer and the cell-type specific Spi-1-dependent promoter (Shirakawa, F., K. Saito, et al. (1993). Mol Cell Biol 13(3): 1332-44) was transfected as a luciferase reporter into LPS-treated RAW264.7 monocyte cells.

C/EBPβ = experiment: Specificity control: C/EBPβ expression by western blot of transfected HeLa-S3 lysates; format: cell-based; details: HeLa-S3 cell lysates, FIG. 4C
Procedure: as §3, §4

T3 sequence (P19893 whole entry, the tested form may be a part): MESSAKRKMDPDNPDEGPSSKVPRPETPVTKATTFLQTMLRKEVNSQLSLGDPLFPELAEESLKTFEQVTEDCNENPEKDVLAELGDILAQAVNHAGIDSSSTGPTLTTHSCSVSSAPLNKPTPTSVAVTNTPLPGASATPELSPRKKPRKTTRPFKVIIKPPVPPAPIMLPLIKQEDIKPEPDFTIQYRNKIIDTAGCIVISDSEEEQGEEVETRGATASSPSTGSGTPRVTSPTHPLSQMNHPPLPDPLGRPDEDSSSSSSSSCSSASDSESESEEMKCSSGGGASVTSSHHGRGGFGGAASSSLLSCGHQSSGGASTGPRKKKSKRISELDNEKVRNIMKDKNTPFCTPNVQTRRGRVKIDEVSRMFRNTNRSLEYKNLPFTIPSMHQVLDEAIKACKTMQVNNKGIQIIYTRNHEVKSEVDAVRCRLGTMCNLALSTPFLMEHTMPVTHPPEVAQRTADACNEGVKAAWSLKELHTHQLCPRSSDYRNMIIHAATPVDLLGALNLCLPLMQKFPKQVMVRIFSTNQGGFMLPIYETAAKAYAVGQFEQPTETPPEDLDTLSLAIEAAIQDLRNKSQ
T2 sequence (P17676 269-345): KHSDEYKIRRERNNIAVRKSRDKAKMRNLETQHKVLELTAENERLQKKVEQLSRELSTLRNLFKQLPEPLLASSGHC

Substance	inhibition of cooperative transactivation of the IL-1β promoter (IL-1β promoter)	interaction with Spi-1 ETS domain probe (Spi-1 ETS domain)	interaction with C/EBPβ bZIP domain probe (C/EBPβ bZIP domain)	interaction with IE2 probe (IE2)	effect on GFP expression from control GFP vector (GFP expression vector)	other results
GFP-IE2 291-343 (SSHHGRGGFGGAASSSLLSCGHQSSGGASTGPRKKKSKRISELDNEKVRNIMK; also: GFP fusion)						inhibition of IL-1β promoter (HT reporter) activity by GFP fusion product (IL-1β promoter; Spi-1 and C/EBPβ transactivation, GFP-expressing cells purified by FACS, FIG. 4B): inhibition of IL-1β promoter activity
IE2 291-343: hCMV IE2 protein amino acid residues 291-343	inhibited	retained	retained	retained	not affected	
IE2 291-364: hCMV IE2 protein amino acid residues 291-364, expressed from vector (His tag or GST fusion)	inhibited	retained	retained	retained	not affected	dose dependence of inhibition of 3.8 kbp IL1B regulatory region reporter activity (IL-1β promoter reporter; LPS-treated RAW264.7, His-tagged expression vector, FIG. 6): dose-dependent inhibition; inhibition of full-length IL-1β reporter (XT) (IL-1β promoter reporter; RAW264.7, LPS stimulated, cotransfected pCDNA 3.1/V5-His IE2 291-364, FIG. 3): inhibits; inhibition of IL-1β promoter reporter (IL-1β promoter reporter; RAW 264.7 cells treated with LPS, FIG. 3): about 50%; effect on expression of C/EBPβ protein (western blot) (C/EBPβ): does not inhibit
delA (SSHHGRGGFGGAASSSLLSCGHQSRISELDNEKVRNIMKDKNTPFCTPNVQTRRGRVKID; not fully specified; cysteine pairing not given here) [reference compound]		lacks binding; also recorded: loss of interaction	loss of interaction	loss of interaction		
full length wild-type IE2: CMV encoded transactivator Immediate Early 2 protein, full length						increase of IL-1β promoter reporter activity (IL-1β promoter; full length wild-type IE2 added to Spi-1 and C/EBPβ transfection, HeLa-S3, FIG. 1D): 4-10 fold
